# Results as given in PubChem BioAssay (NCI).
#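 Exposure lasted 48 hours, with cells grown in 96-well plates and compounds tested at five concentrations. Abbreviation: GI50, concentration required for 50% inhibition of growth. TGI is the concentration that stops growth completely.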
# Tests used:
# Assay in all cases: inhibition of tumour cell growth, NCI panel, 48 h
# [1] = test system: RXF 393 renal
# [2] = test system: HCC-2998 colon
# [3] = test system: SF-539 CNS
# [4] = test system: UACC-257 melanoma
# [5] = test system: MCF7 breast
# [6] = test system: SK-MEL-28 melanoma
# [7] = test system: HT29 colon
# [8] = test system: SK-MEL-2 melanoma
# [9] = test system: OVCAR-3 ovarian
# [10] = test system: NCI-H23 lung
# [11] = test system: OVCAR-5 ovarian
# [12] = test system: OVCAR-4 ovarian
# [13] = test system: SNB-75 CNS
# [14] = test system: MDA-MB-435
# [15] = test system: SR leukemia
# [16] = test system: U251 CNS
# [17] = test system: SK-MEL-5 melanoma
# [18] = test system: HCT-116 colon
# [19] = test system: NCI-H522 lung
# [20] = test system: HL-60(TB) leukemia
# [21] = test system: UACC-62 melanoma
# [22] = test system: COLO 205 colon
# [23] = test system: RPMI-8226 leukemia
# [24] = test system: MOLT-4 leukemia
# [25] = test system: OVCAR-8 ovarian
# [26] = test system: HCT-15 colon
# [27] = test system: IGROV1 ovarian
# [28] = test system: PC-3 prostate
# [29] = test system: BT-549 breast
# [30] = test system: K-562 leukemia
# [31] = test system: SNB-19 CNS
# [32] = test system: M14 melanoma
# [33] = test system: HOP-92 NSCLC
# [34] = test system: SK-OV-3 ovarian
# [35] = test system: CAKI-1 renal
# [36] = test system: CCRF-CEM leukemia
# [37] = test system: MDA-MB-231 breast
# [38] = test system: NCI-H460 lung
# [39] = test system: SN12C renal
# [40] = test system: A549 NSCLC
# [41] = test system: MALME-3M melanoma
# [42] = test system: NCI/ADR-RES ovarian
# [43] = test system: TK-10 renal
# [44] = test system: HOP-62 NSCLC
# [45] = test system: 786-0 renal
# [46] = test system: SF-268 CNS
# [47] = test system: T-47D breast
# [48] = test system: KM12 colon
# [49] = test system: LOX IMVI melanoma
# [50] = test system: A498 renal
# [51] = test system: HS 578T breast
# [52] = test system: SF-295 CNS
# [53] = test system: DU-145 prostate
# [54] = test system: ACHN renal
# [55] = test system: UO-31 renal
# [56] = test system: NCI-H226 lung
# [57] = test system: SW-620 colon
smiles,measurement,setting,value
OCc1ccc(N(Cc2ccc(F)cc2)CC2CC2)cc1Cl,GI50,[1],1.29 µM
same,TGI,[1],8.48 µM
same,GI50,[2],8.82 µM
same,TGI,[2],22.4 µM
same,GI50,[3],14.7 µM
same,TGI,[3],28.2 µM
same,GI50,[4],0.228 µM
same,TGI,[4],1.03 µM
same,GI50,[5],0.585 µM
same,TGI,[5],12.6 µM
same,GI50,[6],13.1 µM
same,TGI,[6],25.9 µM
same,GI50,[7],6.49 µM
same,TGI,[7],20.3 µM
same,GI50,[8],5.39 µM
same,TGI,[8],19 µM
same,GI50,[9],1.31 µM
same,TGI,[9],4.94 µM
same,GI50,[10],4.74 µM
same,TGI,[10],20.2 µM
same,GI50,[11],0.191 µM
same,TGI,[11],0.794 µM
same,GI50,[12],0.511 µM
same,TGI,[12],7.34 µM
same,GI50,[13],10.8 µM
same,TGI,[13],23.1 µM
same,GI50,[14],15.7 µM
same,TGI,[14],31.2 µM
same,GI50,[15],13.4 µM
same,TGI,[15],34 µM
same,GI50,[16],1.48 µM
same,TGI,[16],14 µM
same,GI50,[17],3.72 µM
same,TGI,[17],16.6 µM
same,GI50,[18],0.254 µM
same,TGI,[18],11 µM
same,GI50,[19],11.5 µM
same,TGI,[19],26.3 µM
same,GI50,[20],5.06 µM
same,TGI,[20],26.3 µM
same,GI50,[21],0.263 µM
same,TGI,[21],1.74 µM
same,GI50,[22],5.4 µM
same,TGI,[22],17.4 µM
same,GI50,[23],5.47 µM
same,TGI,[23],36 µM
same,GI50,[24],13.7 µM
same,TGI,[24],34.9 µM
same,GI50,[25],11.8 µM
same,TGI,[25],25.3 µM
same,GI50,[26],10.3 µM
same,TGI,[26],22.9 µM
same,GI50,[27],0.176 µM
same,TGI,[27],1.19 µM
same,GI50,[28],12.1 µM
same,TGI,[28],25.7 µM
same,GI50,[29],14.3 µM
same,TGI,[29],28.2 µM
same,GI50,[30],3.12 µM
same,TGI,[30],17.8 µM
same,GI50,[31],12.3 µM
same,TGI,[31],25.4 µM
same,GI50,[32],14.5 µM
same,TGI,[32],29.8 µM
same,GI50,[33],1.61 µM
same,TGI,[33],11.3 µM
same,GI50,[34],10.6 µM
same,TGI,[34],22.7 µM
same,GI50,[35],6.54 µM
same,TGI,[35],21.9 µM
same,GI50,[36],15.6 µM
same,TGI,[36],39.9 µM
same,GI50,[37],11.5 µM
same,TGI,[37],24.3 µM
same,GI50,[38],0.57 µM
same,TGI,[38],9.47 µM
same,GI50,[39],9.04 µM
same,TGI,[39],21.8 µM
same,GI50,[40],3.16 µM
same,TGI,[40],16.9 µM
same,GI50,[41],14.6 µM
same,TGI,[41],29.9 µM
same,GI50,[42],12.1 µM
same,TGI,[42],28.8 µM
same,GI50,[43],0.0609 µM
same,TGI,[43],0.398 µM
same,GI50,[44],3.09 µM
same,TGI,[44],16.2 µM
same,GI50,[45],6.8 µM
same,TGI,[45],21.3 µM
same,GI50,[46],14.7 µM
same,TGI,[46],28.7 µM
same,GI50,[47],0.271 µM
same,TGI,[47],2.86 µM
same,GI50,[48],12.9 µM
same,TGI,[48],25.8 µM
same,GI50,[49],13.2 µM
same,TGI,[49],26.3 µM
same,GI50,[50],0.0363 µM
same,TGI,[50],0.154 µM
same,GI50,[51],14.7 µM
same,TGI,[51],38.9 µM
same,GI50,[52],1.2 µM
same,TGI,[52],11.7 µM
same,GI50,[53],13.3 µM
same,TGI,[53],26.4 µM
same,GI50,[54],11.7 µM
same,TGI,[54],24 µM
same,GI50,[55],3.43 µM
same,TGI,[55],15.6 µM
same,GI50,[56],0.0419 µM
same,TGI,[56],0.0943 µM
same,GI50,[57],2.38 µM
same,TGI,[57],16.2 µM
